Assay results published in patent US4593090A, “Novel nitrosourea compounds, method for preparing same, and pharmaceutical composition containing same” (Gogo Kimura, priority 1981, dated 1986).
Read-outs that look alike come from different tables or passages of the source.

Legend:
Leukemia L1210 = assay: Activity against Leukemia L1210, intraperitoneal, increase in life span of mice; type: in vivo, female mice (BDF1 family); conditions: for ED (maximum ILS) / ED30: Mus musculus, L1210, ip, ip once a day for 5 successive days; for ED (maximum ILS): daily dosage giving maximum increase of life span, read-out: O.D. (optimum dosage); for ED30: daily dosage increasing average survival days by 30%, read-out: ILS30; for Survivors after 60 days / Max. ILS % / Therapeutic ratio TR: ip; for Survivors after 60 days: 6-membered group; for Max. ILS %: 60-day observation, versus control; for Therapeutic ratio TR: O.D./ILS30
How it was run: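 Female BDF1 mice (20 to 23 g, 6 per group) implanted ip with 1×10^5 L1210 cells; test compound given ip or orally once daily for 5 days starting 24 h later. ILS% from mean survival days vs untreated controls over 60 days; T.R. = O.D./ILS30.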

[1] = Acute toxicity (LD50, Behrens-Karber method); type: in vivo, ICR mice; conditions: mouse, in vivo, ip, mortality during 30 days
Protocol: Test compounds, dissolved or suspended in 0.5% aqueous CMC, were each intraperitoneally administered to ICR mice in a dose of 0.1 ml per 10 g body weight. LD50 (mg/kg) value of each test compound was calculated from the mortality of mice during 30 days by the Behrens-Karber method.

[2] = Diuretic activity, acute sodium loaded mouse screening test; type: in vivo, male mice; conditions: 50 mg/kg oral in 1% saline; for Cl^- / K^+ / Na^+: urine
Protocol: The diuretic activity of the compounds of this invention was assayed by the diuresis screening test referred to as "acute sodium loaded mouse". This test was carried out by the following method.
The acute sodium loaded mouse screening test was carried out by using a 10-membered group of male mice (each weighing 18 to 24 g). Test compounds were incorporated in 1% saline (NaCl) solution and orally administered in a volume of 10 ml/kg. The mice were placed in metabolic cages. Each treated group consisted of 10-members. Five members were placed in one cage. Tests were conducted by oral administrations of (A) 1% saline (NaCl) solution to the control group and (B) 1% saline (NaCl) solution containing a test compound according to this invention.
The determination was carried out for sodium, potassium, and chlorine in each pooled urine sample. The determination of sodium and potassium was carried out by flame photometer. Chlorine was determined by chloride analysis apparatus. The analytical values of sodium, potassium, and chlorine were shown with an average mg equivalent (m Eq)/Kg/5 hours, and the diuretic activity was shown with an average urine volume (ml)/Kg/5 hours.

Ehrlich acites carcinoma = assay: Growth-inhibiting effect against Ehrlich acites carcinoma; type: in vivo, male mice; conditions: Mus musculus, Ehrlich, 120 h, 5 days; for response vs control in vivo at 50 mg/kg: 50 mg/kg/day ip; for response vs control in vivo at 200 mg/kg: 200 mg/kg/day ip; for response vs control in vivo at 25 mg/kg: 25 mg/kg/day ip; for response vs control in vivo at 100 mg/kg: 100 mg/kg/day ip
How it was run: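 Male mice (groups of 6) implanted intraperitoneally with 1×10^7 Ehrlich ascites cells; compounds in 1% Nikkol HCO-60 given i.p. once daily for 5 days starting 24 hrs post-implantation. Total packed cell volume measured at day 7; T/C% vs untreated group, scored - (100-66), + (65-41), ++ (40-11), +++ (10-0).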

| SMILES | ED (maximum ILS) (Leukemia L1210) | ED30 (Leukemia L1210) | Survivors after 60 days (Leukemia L1210) | Max. ILS % (Leukemia L1210) | Therapeutic ratio TR (Leukemia L1210) | LD50 at 720 h [1] | Urine volume [2] | Cl^- [2] | K^+ [2] | Na^+ [2] | response vs control in vivo at 50 mg/kg (Ehrlich acites carcinoma; read-out: Activity) | response vs control in vivo at 50 mg/kg (Ehrlich acites carcinoma; read-out: T/C %) | response vs control in vivo at 200 mg/kg (Ehrlich acites carcinoma; read-out: Activity) | response vs control in vivo at 200 mg/kg (Ehrlich acites carcinoma; read-out: T/C %) | response vs control in vivo at 25 mg/kg (Ehrlich acites carcinoma; read-out: Activity) | response vs control in vivo at 25 mg/kg (Ehrlich acites carcinoma; read-out: T/C %) | response vs control in vivo at 100 mg/kg (Ehrlich acites carcinoma; read-out: Activity) | response vs control in vivo at 100 mg/kg (Ehrlich acites carcinoma; read-out: T/C %) |
| --- | --- | --- | --- | --- | --- | --- | --- | --- | --- | --- | --- | --- | --- | --- | --- | --- | --- | --- |
| CC(C)CO[C@@H]1O[C@H](CN(C(=O)N(CCCl)N=O)C(C)(C)C)[C@@H](O)[C@H](O)[C@H]1O [Compound 175, 3-tert-butyl-3-(isobutyl β-D-glucopyranose-6-yl)-1-(2-chloroethyl)-1-nitrosourea] | 170 mg/kg | 3.33 mg/kg | 6/6 | > 700% | 51.0 | 550 mg/kg | 9.4 ml/kg/5 hrs. | 0.8 mEq/kg/5 hrs. | 0.9 mEq/kg/5 hrs. | 0.6 mEq/kg/5 hrs. |  |  |  |  |  |  |  |  |
| CCCCO[C@@H]1O[C@H](CN(C)C(=O)N(CCCl)N=O)[C@@H](O)[C@H](O)[C@H]1O [Compound 4, 3-methyl-3-(n-butyl β-D-glucopyranose-6-yl)-1-(2-chloroethyl)-1-nitrosourea] | 80 mg/kg | 2.7 mg/kg | 6/6 | > 700% | 29.6 | 220 mg/kg | 8.6 ml/kg/5 hrs. | 0.6 mEq/kg/5 hrs. | 0.9 mEq/kg/5 hrs. | 0.5 mEq/kg/5 hrs. | 11 to 40% | 30.2% | 0 to 10% | 2.3% |  |  |  |  |
| COCCN(C[C@H]1O[C@H](OC(C)COC)[C@H](O)[C@@H](O)[C@@H]1O)C(=O)N(CCCl)N=O (stereo partly drawn) [Compound 35, 3-(2-methoxyethyl)-3-(1-methyl-2-methoxyethyl α-D-glucopyranose-6-yl)-1-(2-chloroethyl)-1-nitrosourea] | 150 mg/kg | 2.23 mg/kg | 6/6 | > 700% | 67.3 | 470 mg/kg | 8.8 ml/kg/5 hrs. | 0.6 mEq/kg/5 hrs. | 0.9 mEq/kg/5 hrs. | 0.5 mEq/kg/5 hrs. |  |  |  |  | 0 to 10% | 0% | 0 to 10% | 0% |
| COCC(C)N(C[C@H]1O[C@H](OCC(C)C)[C@H](O)[C@@H](O)[C@H]1O)C(=O)N(CCCl)N=O (stereo partly drawn) [Compound 110, 3-(1-methyl-2-methoxyethyl)-3-(isobutyl α-D-galactopyranose-6-yl)-1-(2-chloroethyl)-1-nitrosourea] | 200 mg/kg | 3.69 mg/kg | 4/6 | > 435% | 54.2 | 680 mg/kg | 8.8 ml/kg/5 hrs. | 0.6 mEq/kg/5 hrs. | 0.8 mEq/kg/5 hrs. | 0.5 mEq/kg/5 hrs. |  |  |  |  | 0 to 10% | 0% | 0 to 10% | 0% |
| CCOCCCN(C(=O)N(CCCl)N=O)C1C(OC2CCCCC2)OC(CO)C(O)C1O [Compound 65, 3-(3-ethoxy-n-propyl)-3-(cyclohexyl α-D-glucopyranose-2-yl)-1-(2-chloroethyl)-1-nitrosourea] | 200 mg/kg | 4.44 mg/kg | 5/6 | > 620% | 45.0 | 655 mg/kg | 8.8 ml/kg/5 hrs. | 0.7 mEq/kg/5 hrs. | 0.8 mEq/kg/5 hrs. | 0.6 mEq/kg/5 hrs. |  |  |  |  | 0 to 10% | 0% | 0 to 10% | 0% |
